According to article PMC11842588, “A first-in-class selective inhibitor of ERK1/2 and ERK5 overcomes drug resistance with a single-molecule strategy” (Signal Transduction and Targeted Therapy, 2025):
“And” between values parts separate entries of the source, which are not always exact repeats. Equal entries are not always repeated. Where two headings read alike, the source gives them in different places.

Assays:
MEK1/2 and MEK5 = assay: Immunoblotting of upstream MEK activity; assay type: cell-based; conditions: up to 5 μM, 24 h
Description: Then, the cells were washed twice with PBS and stimulated with cell lysis buffer. After 13,000 rpm centrifugation for 20 min, an enhanced bicinchoninic acid (BCA) protein assay kit was (Beyotime Biotechnology, Jiangsu, China) used to quantify the protein level of the supernatural. […] Furthermore, membranes were blocked with 5% skim milk. The membranes were incubated by the corresponding primary antibodies. After being washed twice with TBST solution, the membranes were incubated with horseradish peroxidase (HRP)-conjugated secondary antibodies and visualized by employing ECL ([…]) as the HRP substrate.

Pharmacokinetic study = assay type: in vivo; conditions: rat, plasma, SD rats; for Vd: SD, 1 mg/kg
Description: SKLB-D18 was formulated using a composition of 10% DMSO, 10% Solutol, and 80% (20% HP-β-CD). SKLB-D18 was administered via intravenous injection (1 mg/kg) and intragastric administration (10 mg/kg) on SD rats. At various time points post-administration (0.25 h, 0.5 h, 1 h, 2 h, 4 h, 6 h, 8 h, 24 h), blood samples (0.2 mL) were collected and centrifuged (6800 × g, 6 min, 2–8 °C) to separate plasma. Plasma samples were precipitated with methanol, vortexed, and centrifuged (18,000 × g, 4 °C, 7 min); the supernatant was analyzed using LC-MS/MS. Parameters such as AUC0-t, AUC0-∞, Cmax, Tmax, and T1/2 were calculated using Phoenix WinNonlin 7.0.

ERK1/2 and ERK5 = assay: Cellular thermal shift assay (CETSA); assay type: cell-based; conditions: 2 μM, MDA-MB-231 and MDA-MB-468 cells, 37–62 °C
Description: Cells were collected by trypsin and then resuspended in PBS. Following heating at the indicated temperatures (37, 42, 47, 52, 57, and 62 °C) for 3 min, cell suspensions were lysed by three freeze−thaw cycles with liquid nitrogen and thawed at room temperature. The lysates were separated by centrifugation at 17,000 × g for 20 min. The supernatants were collected and prepared for Immunoblotting to detect the stability of ERK1/2 and ERK5.

[1] = system: Caco-2 cell monolayer model; assay: Caco-2 bidirectional transport; assay type: in vitro ADME; conditions: Caco-2, 120 min
Description: (§1) Caco-2 cells were inoculated in a Transwell chamber with a pore size of 0.4 μm, and cultured for 15–20 days, the formation of the monolayer cell model was verified by the permeability determination of fluorescein sodium. Then a certain concentration of culture-medium containing candidate compounds was added to the upper and lower sides of different groups of cells, and the culture-medium at the corresponding position was absorbed after the specified time. After the internal standard compound was added, the content of candidate compounds was determined by LC-MS/MS to investigate the apparent permeability and effection rate, and to analyze the bidirectional transport characteristics of candidate compounds in the Caco-2 cell monolayer model.

[2] = Caco-2 bidirectional transport; assay type: in vitro ADME; conditions: human
Description: as §1

[3] = Liver microsome metabolic stability; assay type: in vitro ADME
Description: An appropriate amount of SD rat and human liver microsomal solution was incubated at 37 °C with a specified concentration of candidate compounds for 5 min, and then NADPH reaction system was added to initiate metabolic reaction. The reaction was terminated at a series of time points by adding acetonitrile solution containing an internal standard compound. Centrifuge at 12,000 rpm for 20 min, take the supernatant solution, and place it in a vacuum centrifuge to dry. After acetonitrile was dissolved, the supernatant solution was centrifugated, and the remaining compounds were quantified by LC-MS to evaluate the metabolic stability of liver microsomes.

[4] = H&E staining of major organs; assay type: in vivo; conditions: xenograft study, heart, liver, spleen, lung, kidney
Description: All procedures were performed in accordance with the Laboratory Animals Welfare Act, the Guide for the Care and Use of Laboratory Animals and the Guidelines and Policies. The rodent experiment was approved by IACUC (Institutional Animal Care and Use Committee) in the Experimental Animal Ethics Committee of West China Hospital (Approval No. 2021672A). 48 female nude mice (BALB/c-nu, 5 weeks, 15–18 g, purchased from Beijing HFK Bio-Technology Co., LTD) were acclimatized for one week in an SPF-grade animal facility (ventilated, 20–25 °C, 50–60% humidity). […] When the tumor volume reached approximately 100 mm^3 (V = L × W^2/2), the mice were randomly divided into six groups (n = 8 per group): (1) Control group (normal saline); (2) 25 mg/kg SKLB-D18-treated group; (3) 50 mg/kg SKLB-D18-treated group; (4) 50 mg/kg BVD-523-treated group; (5) 50 mg/kg XMD8-92-treated group; (6) BVD-523 (50 mg/kg) and XMD8-92 (50 mg/kg) combined treatment group. Drugs were freshly prepared with 5% DMSO, 10% Solutol HS-15, and 85% normal saline on the day of administration. Intragastric administration occurred once daily at the same time for 16 consecutive days. And the body weight and tumor volume of mice were measured every three days. […]
First, the fixed major organs of nude mice were dehydrated, embedded, and sectioned. […] Staining results and tissue morphology were analyzed under a microscope.

With `CN(C)Cc1cccc(Nc2ncc(Cl)c(-c3csc(C(=O)NN4CCOCC4)c3)n2)c1` [SKLB-D18, 4-(5-chloro-2-((3-((dimethylamino)methyl)phenyl)amino)pyrimidin-4-yl)-N-morpholinothiophene-2-carboxamide] the “changes in the activity of upstream MEK1/2 and MEK5” value (MEK1/2 and MEK5) was “did not cause any changes”, the Vd (Pharmacokinetic study; iv, i.v. 1 mg/kg, read-out: Vss) was 17 ± 0.568 L/kg and the Vd (Pharmacokinetic study; iv, i.v. 1 mg/kg, read-out: Vz) was 20.2 ± 1.38 L/kg. It also gave an AUC(0-inf) (Pharmacokinetic study; iv, i.v. 1 mg/kg) of 143 ± 6.6 ng·h/mL, an AUC(0-t) (Pharmacokinetic study; iv, i.v. 1 mg/kg) of 136 ± 5.73 ng·h/mL and a Cmax (Pharmacokinetic study; iv, i.v. 1 mg/kg) of 58.7 ± 7.22 ng/mL. It also gave a half-life (Pharmacokinetic study; iv, i.v. 1 mg/kg) of 2.01 ± 0.16 h, a clearance (Pharmacokinetic study; iv, i.v. 1 mg/kg, read-out: CL (mL/(min·kg))) of 117 ± 5.45 mL/min/kg and a bioavailability (Pharmacokinetic study; oral, p.o. 10 mg/kg vs i.v. 1 mg/kg) of 22.4%. It also gave an AUC(0-inf) (Pharmacokinetic study; po, p.o. 10 mg/kg) of 457 ng·h/mL, an AUC(0-t) (Pharmacokinetic study; po, p.o. 10 mg/kg) of 304 ng·h/mL and a Cmax (Pharmacokinetic study; po, p.o. 10 mg/kg) of 53.7 ng/mL. For the same compound, the half-life (Pharmacokinetic study; po, p.o. 10 mg/kg) was 3.71 h, the “thermal shift of ERK5 and ERK1/2 proteins (CETSA)” value (ERK1/2 and ERK5) was “increasing thermal shift” and the “Efflux rate (%)” value [1] was 13.7% and 13.7 ± 0.5%. For the same compound, the Papp A→B at 30 min ([2]; Caco-2, 30 min, read-out: AP→BL Papp) was 0.106 ± 0.01 ×10⁻⁶ cm/s, the Papp B→A at 30 min ([2]; Caco-2, 30 min, read-out: BL→AP Papp) was 0.011 ± 0.01 ×10⁻⁶ cm/s and the Papp A→B at 60 min ([2]; Caco-2, 60 min, read-out: AP→BL Papp) was 0.318 ± 0.06 ×10⁻⁶ cm/s. For the same compound, the Papp B→A at 60 min ([2]; Caco-2, 60 min, read-out: BL→AP Papp) was 0.117 ± 0.02 ×10⁻⁶ cm/s, the Papp A→B at 120 min ([2]; Caco-2, 120 min, read-out: AP→BL Papp) was 2.23 ×10⁻⁶ cm/s and the Papp B→A at 120 min ([2]; Caco-2, 120 min, read-out: BL→AP Papp) was 0.305 ×10⁻⁶ cm/s. For the same compound, the “Residual rate (%)” value ([3]; SD rat liver microsomes) was 25.8%, the “T1/2” value ([3]; SD rat liver microsomes) was 0.5418 h and the microsomal CLint ([3]; SD rat liver microsomes) was 42.6 µL/min/mg. For the same compound, the half-life ([3]; SD, rat, liver microsomes) was 0.542 h, the “Residual rate (%)” value ([3]; human liver microsomes) was 69.42% and the half-life ([3]; human liver microsomes) was 1.53 h. For the same compound, the microsomal CLint ([3]; human liver microsomes) was 15.1 µL/min/mg and the “toxicity to major organs (H&E staining)” value [4] was “no significant toxicity”.
